Source: patent US6013648A, “CB2 Receptor agonist compounds” (Sanofi, priority 1995, dated 2000)

Key:
human B cells = experiment: DNA synthesis rate (thymidine absorption) of human B cells co-stimulated with anti-Ig antibodies; assay type: cell-based; settings: for increase in the thymidine absorption (DNA synthesis rate): nanomolar concentrations, human B cells co-stimulated with anti-Ig antibodies
Description: It has been shown that, at nanomolar concentrations, compounds according to the invention, such as 3-(morpholin-4-ylmethyl)-5-methyl-6-(naphth-1-ylcarbonyl)-2,3-dihydropyrrolo[1,2,3-de]-1,4-benzoxazine methanesulfonate and 1-(2-(morpholin-4-yl)ethyl)-2-methyl-3-(naphth-1-ylcarbonyl)-7-methoxyindole, are capable of substantially increasing the DNA synthesis rate of human B cells co-stimulated with anti-Ig antibodies (increase of about 40% in the thymidine absorption).

[1] = target: T1, human CB2 cannabinoid receptors (Homo sapiens, UniProt P34972); experiment: forskolin-stimulated cAMP production / adenylate cyclase inhibition, CB2; assay type: cell-based
T1 construct: expressed in transfected cells; host or cells: probably CHO cells (the print may tie CHO to CB1 only)
T1 sequence (P34972 whole entry): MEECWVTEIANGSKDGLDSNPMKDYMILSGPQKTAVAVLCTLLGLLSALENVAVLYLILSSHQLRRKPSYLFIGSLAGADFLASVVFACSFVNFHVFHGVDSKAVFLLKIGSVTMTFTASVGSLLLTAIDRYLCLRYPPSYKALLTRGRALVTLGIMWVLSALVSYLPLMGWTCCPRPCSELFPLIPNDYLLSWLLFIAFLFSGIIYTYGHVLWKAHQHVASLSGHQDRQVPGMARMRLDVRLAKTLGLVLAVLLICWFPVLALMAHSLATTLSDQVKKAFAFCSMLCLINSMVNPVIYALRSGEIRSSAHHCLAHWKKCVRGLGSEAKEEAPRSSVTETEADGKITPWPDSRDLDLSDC
Description: Furthermore, the compounds according to the invention behave in vitro as specific agonists for the human CB2 cannabinoid receptors relative to the CB1 receptors expressed in CHO cells. In fact, by binding specifically to the CB2 receptors, they reduce forskolin-stimulated cAMP production by inhibiting the adenylate cyclase. The tests were carried out under the experimental conditions described by Matsuda et al. (Nature, 1990, 346, 561-564).
By way of example, the following adenylate cyclase 50% inhibitory concentrations, IC50, were calculated for 1-(2-(morpholin-4-yl)ethyl)-2-methyl-3-(4-bromonaphth-1-ylcarbonyl)-7-methoxyindole: […]

[2] = target: T2, CB1 receptors expressed in CHO cells (Homo sapiens, UniProt P21554); experiment: forskolin-stimulated cAMP production / adenylate cyclase inhibition, CB1; assay type: cell-based
T2 construct: expressed in transfected cells; host or cells: CHO cells
T2 sequence (P21554 whole entry): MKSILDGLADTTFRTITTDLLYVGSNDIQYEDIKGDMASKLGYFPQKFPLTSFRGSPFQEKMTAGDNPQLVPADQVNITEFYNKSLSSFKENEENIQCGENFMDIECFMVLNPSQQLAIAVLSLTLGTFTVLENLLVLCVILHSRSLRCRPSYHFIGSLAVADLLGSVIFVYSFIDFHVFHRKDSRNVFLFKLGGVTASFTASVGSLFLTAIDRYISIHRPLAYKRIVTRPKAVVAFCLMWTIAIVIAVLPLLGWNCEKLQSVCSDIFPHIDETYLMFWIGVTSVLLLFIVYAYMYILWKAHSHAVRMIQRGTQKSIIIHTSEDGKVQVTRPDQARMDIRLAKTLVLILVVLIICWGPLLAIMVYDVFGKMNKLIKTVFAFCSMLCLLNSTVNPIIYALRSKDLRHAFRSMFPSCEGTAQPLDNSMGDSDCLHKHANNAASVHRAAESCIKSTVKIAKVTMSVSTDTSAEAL
Description: The tests were carried out under the experimental conditions described by Matsuda et al. (Nature, 1990, 346, 561-564).

[3] = target: T3, peripheral human cannabinoid receptors (CB2) (Homo sapiens, UniProt P34972); experiment: affinity binding test, membranes from cell lines expressing CB2; settings: in vitro binding; read-out: affinity for the CB2 receptor
T3 construct: expressed in transfected cells; host or cells: cell line expressing CB2 (probably CHO; the print may tie CHO to CB1 only)
T3 sequence (P34972 whole entry): as the sequence (P34972 whole entry) above
Description: (§1) Affinity binding tests were carried out under the experimental conditions described by Devane et al. (Molecular Pharmacology (1988) 34, 605-613) with membranes derived from cell lines in which the CB1 and CB2 receptors were expressed (Munro et al., Nature (1993) 365, 561-565).

[4] = target: T4, central human receptors (CB1) (Homo sapiens, UniProt P21554); experiment: affinity binding test, membranes from cell lines expressing CB1
T4 construct: expressed in transfected cells; host or cells: Chinese hamster ovary (CHO) cells
T4 sequence (P21554 whole entry): as the sequence (P21554 whole entry) above
Description: as §1

With `Cc1c(C(=O)NN2CCCCC2)nn(-c2ccc(Cl)cc2Cl)c1-c1ccc(Cl)cc1` [SR 141716A, reference compound] the blocking effect (human B cells; wide concentration range, with CP 55940 (or Δ^9 -THC or WIN 55212-2) at 10^-9 M) was “no blocking effect was observed”.

In the case of `COc1cccc2c(C(=O)c3cccc4ccccc34)c(C)n(CCN3CCOCC3)c12` [Compound 6, 1-(2-(morpholin-4-yl)ethyl)-2-methyl-3-(naphth-1-ylcarbonyl)-7-methoxyindole], the “increase in the thymidine absorption (DNA synthesis rate)” value (human B cells) is reported as “about 40%”.

For `COc1cccc2c(C(=O)c3ccc(Br)c4ccccc34)c(C)n(CCN3CCOCC3)c12` [Compound 22, 1-(2-(Morpholin-4-yl)ethyl)-2-methyl-3-(4-bromonaphth-1-ylcarbonyl)-7-methoxyindole], the IC50 [1] was 1 nM, the IC50 [2] was 1000 nM and the Ki [3] was 1.8 nM. The Ki [4] was > 1000 nM.

`CS(=O)(=O)O.Cc1c(C(=O)c2cccc3ccccc23)c2cccc3c2n1C(CN1CCOCC1)CO3` (single isomer, unassigned) [3-(morpholin-4-ylmethyl)-5-methyl-6-(naphth-1-ylcarbonyl)-2,3-dihydropyrrolo[1,2,3-de]-1,4-benzoxazine methanesulfonate] was tested, and the “increase in the thymidine absorption (DNA synthesis rate)” value (human B cells) was “about 40%”.
